Values of other authors as cited in paper PMC8146568, “Thermococcus bergensis sp. nov., a Novel Hyperthermophilic Starch-Degrading Archaeon” (Biology, 2021).
Where two headings read alike, the source gives them in different places.

Test system: T1, glyceraldehyde-3-phosphate ferredoxin oxidoreductase (GAPOR)
T1 construct: gene gor; native, purified from starch-grown culture of "strain 7324" (DSM 8774 mixed culture, formerly attributed to Archaeoglobus fulgidus); 66 kDa monomer; N-terminus MRFSVLKINLNEKKVX(X)EVFEREXV
Assay: benzyl viologen-dependent GAP oxidation, steady-state kinetics
Assay type: biochemical, Thermococcus bergensis
Conditions: pH 7.8, 50 °C, read-out: apparent Km

Km (benzyl viologen as electron acceptor) [µM]	Compound	Km (artificial electron acceptor, GAP as co-substrate) [µM]
5	O=C[C@H](O)COP(=O)(O)O [GAP, glyceraldehyde-3-phosphate]	
	c1ccc(C[n+]2ccc(-c3cc[n+](Cc4ccccc4)cc3)cc2)cc1 [BV, benzyl viologen]	4000
